How the values were obtained:
[1] = biological target: T1, RecG (Thermotoga maritima, UniProt Q9WY48); assay: Steady-state ATPase rate measurements with phosphate biosensor MDCC-PBP; format: biochemical; settings: for K m / k cat: 20°C, 10 nM RecG, 500 nM DNA junction (A40:B40)
T1 construct: made in house
T1 sequence (Q9WY48 1-780): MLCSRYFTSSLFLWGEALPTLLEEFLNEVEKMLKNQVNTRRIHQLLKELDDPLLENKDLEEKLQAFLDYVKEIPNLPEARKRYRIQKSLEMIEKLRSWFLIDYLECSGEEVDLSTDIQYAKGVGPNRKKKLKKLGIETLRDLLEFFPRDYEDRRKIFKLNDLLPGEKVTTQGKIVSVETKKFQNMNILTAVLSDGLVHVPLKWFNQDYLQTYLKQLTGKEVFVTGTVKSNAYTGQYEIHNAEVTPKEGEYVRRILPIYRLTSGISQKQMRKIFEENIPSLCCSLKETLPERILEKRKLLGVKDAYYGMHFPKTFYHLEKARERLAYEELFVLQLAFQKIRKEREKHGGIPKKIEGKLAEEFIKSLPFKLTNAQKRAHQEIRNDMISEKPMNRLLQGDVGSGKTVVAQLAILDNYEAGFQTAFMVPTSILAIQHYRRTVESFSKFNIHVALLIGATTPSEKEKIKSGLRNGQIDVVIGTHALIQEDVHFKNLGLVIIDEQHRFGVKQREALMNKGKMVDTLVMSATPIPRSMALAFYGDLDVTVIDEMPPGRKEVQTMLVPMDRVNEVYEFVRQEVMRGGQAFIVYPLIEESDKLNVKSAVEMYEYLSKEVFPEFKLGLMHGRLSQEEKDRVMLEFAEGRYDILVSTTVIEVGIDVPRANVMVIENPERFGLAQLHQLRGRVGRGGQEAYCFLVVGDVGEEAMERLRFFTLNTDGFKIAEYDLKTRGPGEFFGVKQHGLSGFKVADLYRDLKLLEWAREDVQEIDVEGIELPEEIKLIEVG
Description: Steady-state measurements were made to gain an overall assessment of the reaction and the affinities of various nucleotides before investigating the individual steps in the ATPase cycle. A two-strand DNA junction, which contains two 20-bp regions of complementary and non-complementary sequences (A40:B40 Figure 1 and Table S1), was used in all these measurements. This forms a Y-shape structure and RecG translocates one single-stranded arm, but then remains bound to the end of the junction still hydrolyzing ATP [10].
All reactions with RecG and DNA were done at 20°C in a buffer containing 50 mM Tris⋅acetate (pH 8.0), 30 mM potassium acetate, 3 mM magnesium acetate and 1 mM DTT. ATPase measurements using MDCC-PBP were taken in the presence of a Pi mop, as described above. Steady-state ATPase measurements were taken in a solution (60 µl) at 20°C, containing 10 nM RecG, 500 nM DNA junction (A40∶B40, see Table S1) and 10 µM MDCC-PBP with varying nucleotide concentrations as substrate or inhibitor [23].

[2] = biological target: T1, RecG; assay: Phosphate-water oxygen exchange during hydrolysis; format: biochemical; settings: for k +3 /k −2: γ-18O3 nucleotide, 25°C
Description: In order to get information about the reverse of cleavage step 2 (scheme in Figure 2A), phosphate-water oxygen exchange measurements were done using (γ-^18O3)mantATP. Intermediate exchange can occur between terminal oxygens of the nucleotide and water during hydrolysis, giving information about the value of k +3 /k −2, as previously described. In this case, (γ-^18O3)mantATP was used as substrate and partial hydrolysis occurred in the presence of RecG⋅DNA, as described in the materials and methods section. The Pi had very similar distribution of oxygen-18 as with (γ-^18O3)mantATP, consistent with essentially little reversal of the cleavage step (k +3 /k −2≥9). This is consistent with a rapid release of Pi.
For intermediate exchange during ATP hydrolysis, 0.5 µM RecG and 1 mM (γ-^18O3)ATP or (γ-^18O3)mantATP were incubated for 10 min (+1 µM DNA A40∶B40, Table S1) or 20 min (- DNA) at 25°C in a volume of 100 µl in the buffer described below. Pi was analyzed for distribution of different ^18O-labeled species on a mass spectrometer as described previously, [37] except that during purification, the ^18O-labeled Pi was detected by MDCC-PBP, rather than radioactive tracers.
Supplementary file pone.0038270.s005.pdf: Table S2 Oxygen exchange during ATP or mantATP hydrolysis by RecG: distributions of oxygen-18 in the Pi product. Experiments were performed as described in Materials and Methods. The data were corrected for isotopic enrichment of the starting nucleotide, 93% for (γ-^18O3)mantATP and 98% for (γ-^18O3) ATP. […] Each distribution is the average of three mass spectral assays. Thus the distributions are for the product Pi as though the starting enrichment was 100%. In all cases there was very little oxygen exchange as shown by the large peak of (^18O3)Pi, in which all three γ-oxygens of ATP are retained. The distributions were then used to compute the ratio of rate constants for Pi release (k +3) and on-enzyme ATP resynthesis (k −2) as in Figure 2 [14], [37].

[3] = biological target: T1, RecG; assay: Titrations of RecG into fluorescent nucleotides in the absence of DNA; format: binding
Method: The two phases of this fluorescence increase with excess RecG⋅DNA would therefore relate to formation of bound mantATP (1.5-fold intensity increase relative to free nucleotide) and bound mantADP (4.9-fold). This interpretation was supported by titrations of RecG into the fluorescent nucleotides in the absence of DNA.
Steady-state fluorescence was measured using a Cary Eclipse fluorimeter (Varian) with a xenon light source. Absorbance spectroscopy was performed using a Beckman DU640 spectrophotometer.

Row | SMILES | K m [1] | k cat [1] | (18O1)Pi in product Pi ([2]; DNA present) [%] | (18O2)Pi in product Pi ([2]; DNA present) [%] | (18O3)Pi in product Pi ([2]; DNA present) [%] | k +3 /k −2 ([2]; DNA present (A40∶B40)) | (18O1)Pi in product Pi ([2]; no DNA) [%] | (18O2)Pi in product Pi ([2]; no DNA) [%] | (18O3)Pi in product Pi ([2]; no DNA) [%] | k +3 /k −2 ([2]; no DNA) | lower ATPase activity than ATP ([1]; mantATP vs ATP) [fold] | increase in fluorescence on titration with RecG [3] [fold]
1 | Nc1ncnc2c1ncn2[C@@H]1O[C@H](COP(=O)(O)OP(=O)(O)OP(=O)(O)O)[C@@H](O)[C@H]1O [ATP] | 9 (±2) µM | 8.3 (±1.7) s^−1 | 2.8 | 2.3 | 94.9 | 18 | 6.1 | 4.0 | 89.9 | 9.0 |  | 
2 | CNc1ccccc1C(=O)O[C@H]1[C@@H](O)[C@H](n2cnc3c(N)ncnc32)O[C@@H]1COP(=O)(O)OP(=O)(O)OP(=O)(O)O [mantATP, 2′(3′)-O-(N-methylanthraniloyl)ATP] | 1.9 (±0.6) µM | 0.3 (±0.1) s^−1 | 0.4 | 7.5 | 92.1 | 8.7 | 0.4 | 7.0 | 92.6 | 9.5 | 30 | 1.3

Reference: paper PMC3368886, “ATPase Cycle and DNA Unwinding Kinetics of RecG Helicase” (PLoS ONE, 2012)
